Here are results for 18 compounds from patent US20240317721A1, “PYRAZOLYL DERIVATIVES AS INHIBITORS OF THE KRAS MUTANT PROTEIN” (NOVARTIS AG, priority 2021, published 2024).

Structures are written as SMILES.

The experiment concerns the target KRasG12C (M1-K169, biotinylated on the N-terminus) (Homo sapiens (Human), UniProt P01116, G12C). Put plainly: Covalent competition assay: scintillation proximity assay (SPA) quantifying covalent modification of KRASG12C. It is filed as binding. The settings on record: competition with radiolabeled covalent probe (Compound B/Compound A), 2 hours incubation, 10 nM KRasG12C. Summed up: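 Test compounds compete with a radiolabeled covalent probe for modification of N-terminally biotinylated KRasG12C(M1-K169):GDP, final 10 nM protein, 25 nM radio-ligand, 475 nM unlabelled ligand, 2 h with agitation in 20 mM Tris-HCl pH 7.5, 150 mM NaCl, 0.1 mM MgCl2, 0.01% Tween-20.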
(In a scintillation proximity assay essentially only radioactivity close to the scintillant gives light.)
Turning to `C=CC(=O)N1CC2(CC(n3nc(N4CCC5(CN(C6COC6)C5)CC4(C)C)c(-c4c(Cl)c(Cl)cc5[nH]ncc45)c3C)C2)C1` (single isomer, unassigned) [Example 92b, 1-(6-(4-(5,6-dichloro-1H-indazol-4-yl)-3-(6,6-dimethyl-2-(oxetan-3-yl)-2,7-diazaspiro[3.5]nonan-7-yl)-5-methyl-1H-pyrazol-1-yl)-2-azaspiro[3.3]heptan-2-yl)prop-2-en-1-one], the IC50 (usually the point on the concentration scale where inhibition reaches its midpoint) was 7 nM.
In the case of `C=CC(=O)N1CC2(CC(n3nc(N4CCC5(CN(C6COC6)C5)CC45CCC5)c(-c4c(Cl)c(C)cc5[nH]ncc45)c3C)C2)C1` (single isomer, unassigned) [Example 93a, 1-(6-(4-(5-chloro-6-methyl-1H-indazol-4-yl)-5-methyl-3-(2-(oxetan-3-yl)-2,10-diazadispiro[3.1.3^6.3^4]dodecan-10-yl)-1H-pyrazol-1-yl)-2-azaspiro[3.3]heptan-2-yl)prop-2-en-1-one] it was more than 5000 nM; in that of `C=CC(=O)N1CC2(CC(n3nc(N4CCC5(CN(C6COC6)C5)CC45CCC5)c(-c4c(Cl)c(C)cc5[nH]ncc45)c3C)C2)C1` (single isomer, unassigned) [Example 93b, 1-(6-(4-(5-chloro-6-methyl-1H-indazol-4-yl)-5-methyl-3-(2-(oxetan-3-yl)-2,10-diazadispiro[3.1.3^6.3^4]dodecan-10-yl)-1H-pyrazol-1-yl)-2-azaspiro[3.3]heptan-2-yl)prop-2-en-1-one], 12 nM.
The value for `C=CC(=O)N1CC2(CC(n3nc(N4CCN(C(C)=O)C[C@@H]4CC)c(-c4c(Cl)c(C)cc5[nH]ncc45)c3C)C2)C1` (single isomer, unassigned) [Example 94a] was more than 50000 nM; that for `C=CC(=O)N1CC2(CC(n3nc(N4CCN(C(C)=O)C[C@@H]4CC)c(-c4c(Cl)c(C)cc5[nH]ncc45)c3C)C2)C1` (single isomer, unassigned) [Example 94b] was 64 nM; that for `C=CC(=O)N1CC2(CC(n3nc(N4CCN(C(C)=O)C[C@@H]4C(C)C)c(-c4c(Cl)c(C)cc5[nH]ncc45)c3C)C2)C1` (single isomer, unassigned) [Example 95a] was more than 5000 nM.
The value for `C=CC(=O)N1CC2(CC(n3nc(N4CCN(C(C)=O)C[C@@H]4C(C)C)c(-c4c(Cl)c(C)cc5[nH]ncc45)c3C)C2)C1` (single isomer, unassigned) [Example 95b] was 373 nM; that for `C=CC(=O)N1CC2(CC(n3nc(N4CCC(N(C)C(=O)COC)CC4(C)C)c(-c4c(Cl)c(C)cc5[nH]ncc45)c3C)C2)C1` (single isomer, unassigned) [Example 96a, N-(1-(1-(2-acryloyl-2-azaspiro[3.3]heptan-6-yl)-4-(5-chloro-6-methyl-1H-indazol-4-yl)-5-methyl-1H-pyrazol-3-yl)-2,2-dimethylpiperidin-4-yl)-2-methoxy-N-methylacetamide] was more than 5000 nM; that for `C=CC(=O)N1CC2(CC(n3nc(N4CCC(N(C)C(=O)COC)CC4(C)C)c(-c4c(Cl)c(C)cc5[nH]ncc45)c3C)C2)C1` (single isomer, unassigned) [Example 96b, N-(1-(1-(2-acryloyl-2-azaspiro[3.3]heptan-6-yl)-4-(5-chloro-6-methyl-1H-indazol-4-yl)-5-methyl-1H-pyrazol-3-yl)-2,2-dimethylpiperidin-4-yl)-2-methoxy-N-methylacetamide] was 11 nM.
In the case of `C=CC(=O)N1CC2(CC(n3nc(N4CCC(N(C)C(=O)COC)CC4(C)C)c(-c4c(Cl)c(C)cc5[nH]ncc45)c3C)C2)C1` (single isomer, unassigned) [Example 97a, N-(1-(1-(2-acryloyl-2-azaspiro[3.3]heptan-6-yl)-4-(5-chloro-6-methyl-1H-indazol-4-yl)-5-methyl-1H-pyrazol-3-yl)-2,2-dimethylpiperidin-4-yl)-2-methoxy-N-methylacetamide], the IC50 stood at 300 nM.
`C=CC(=O)N1CC2(CC(n3nc(N4CCC(N(C)C(=O)COC)CC4(C)C)c(-c4c(Cl)c(C)cc5[nH]ncc45)c3C)C2)C1` (single isomer, unassigned) [Example 97b, N-(1-(1-(2-acryloyl-2-azaspiro[3.3]heptan-6-yl)-4-(5-chloro-6-methyl-1H-indazol-4-yl)-5-methyl-1H-pyrazol-3-yl)-2,2-dimethylpiperidin-4-yl)-2-methoxy-N-methylacetamide]: the IC50 is 1700 nM.
As to `C=CC(=O)N1CC2(CC(n3nc(N4CCC(C(=O)N(C)C)CC4(C)C)c(-c4c(Cl)c(C)cc5[nH]ncc45)c3C)C2)C1` (single isomer, unassigned) [Example 98b, 1-(1-(2-acryloyl-2-azaspiro[3.3]heptan-6-yl)-4-(5-chloro-6-methyl-1H-indazol-4-yl)-5-methyl-1H-pyrazol-3-yl)-N,N,2,2-tetramethylpiperidine-4-carboxamide], the IC50 was 19 nM.
Turning to `C=CC(=O)N1CC2(CC(n3nc(N4CCC(C(=O)N(C)C)CC4(C)C)c(-c4c(Cl)c(C)cc5[nH]ncc45)c3C)C2)C1` (single isomer, unassigned) [Example 99a, 1-(1-(2-acryloyl-2-azaspiro[3.3]heptan-6-yl)-4-(5-chloro-6-methyl-1H-indazol-4-yl)-5-methyl-1H-pyrazol-3-yl)-N,N,2,2-tetramethylpiperidine-4-carboxamide], the concentration for half-maximal inhibition (IC50) came out at 2900 nM.
As to `C=CC(=O)N1CC2(CC(n3nc(N4CCN(Cc5ccccc5)CC45CCC5)c(-c4c(Cl)c(C)cc5[nH]ncc45)c3C)C2)C1` (single isomer, unassigned) [Example 100a, 1-(6-(3-(8-benzyl-5,8-diazaspiro[3.5]nonan-5-yl)-4-(5-chloro-6-methyl-1H-indazol-4-yl)-5-methyl-1H-pyrazol-1-yl)-2-azaspiro[3.3]heptan-2-yl)prop-2-en-1-one], the half-maximal inhibitory concentration (IC50) was more than 5000 nM.
In the case of `C=CC(=O)N1CC2(CC(n3nc(N4CCN(Cc5ccccc5)CC45CCC5)c(-c4c(Cl)c(C)cc5[nH]ncc45)c3C)C2)C1` (single isomer, unassigned) [Example 100b, 1-(6-(3-(8-benzyl-5,8-diazaspiro[3.5]nonan-5-yl)-4-(5-chloro-6-methyl-1H-indazol-4-yl)-5-methyl-1H-pyrazol-1-yl)-2-azaspiro[3.3]heptan-2-yl)prop-2-en-1-one] it was 86 nM.
The value for `C=CC(=O)N1CC2(CC(n3nc(N4CCn5nccc5C4(C)C)c(-c4c(Cl)c(C)cc5[nH]ncc45)c3C)C2)C1` (single isomer, unassigned) [Example 101a, 1-(6-(4-(5-chloro-6-methyl-1H-indazol-4-yl)-3-(4,4-dimethyl-6,7-dihydropyrazolo[1,5-a]pyrazin-5(4H)-yl)-5-methyl-1H-pyrazol-1-yl)-2-azaspiro[3.3]heptan-2-yl)prop-2-en-1-one] was more than 50000 nM; that for `C=CC(=O)N1CC2(CC(n3nc(N4CCn5nccc5C4(C)C)c(-c4c(Cl)c(C)cc5[nH]ncc45)c3C)C2)C1` (single isomer, unassigned) [Example 101b, 1-(6-(4-(5-chloro-6-methyl-1H-indazol-4-yl)-3-(4,4-dimethyl-6,7-dihydropyrazolo[1,5-a]pyrazin-5(4H)-yl)-5-methyl-1H-pyrazol-1-yl)-2-azaspiro[3.3]heptan-2-yl)prop-2-en-1-one] was 103 nM.
The value for `C=CC(=O)N1CC2(CC(n3nc(N4CCC(N5C[C@H](OC)[C@H](OC)C5)CC4(C)C)c(-c4c(Cl)c(C)cc5[nH]ncc45)c3C)C2)C1` (single isomer, unassigned) [Example 102a] was more than 5000 nM.
